In patent EP1640359A2, “Anticonvulsant and central nervous system-active bis(fluorophenyl)alkylamides” (NPS PHARMACEUTICALS, INC., priority 1997, dated 1999):

System: normal anesthetized rats
Assay: Flexor reflex in normal anesthetized rats (spasticity model)
Assay type: in vivo
Conditions: in comparison to baclofen, Figure 3 legend only, no numbers given
Text: Baclofen, diazepam (Valium), and tizanidine are effective on different parameters of spasticity (EMG recordings, H-reflex, the H/M ratio, mono- and polysynaptic reflexes, clonus, hyperreflexia) in these models. The flexor reflex is a polysynaptic response elicited by stimulation of the bottom of the foot and models the withdrawal reflex.

NC(=O)CC(c1cccc(F)c1)c1cccc(F)c1 [Compound 1, 3,3-bis(3-fluorophenyl)propanamide]
reduction in the flexor reflex: reduction in the flexor reflex
